Assay results from ChEMBL document CHEMBL1139006, “Synthesis and in vitro antibiotic activity of 16-membered 9-O-arylalkyloxime macrolides” (2006).
Converted amounts (≈) assume the structure as drawn.

Experiments:
Assay type in all cases: functional
Streptococcus pneumoniae [1] = assay: Antibacterial activity against macrolide resistant Streptococcus pneumoniae ATCC 700677
Enterococcus faecalis = assay: Antibacterial activity against Enterococcus faecalis ATCC 51575
Streptococcus pneumoniae [2] = assay: Antibacterial activity against Streptococcus pneumoniae ATCC 49619
Staphylococcus aureus [3] = assay: Antibacterial activity against macrolide resistant Staphylococcus aureus ATCC 33591
Staphylococcus aureus [4] = assay: Antibacterial activity against macrolide resistant Staphylococcus aureus ATCC 141541
Streptococcus pneumoniae [5] = assay: Antibacterial activity against macrolide resistant Streptococcus pneumoniae ATCC 700905
Staphylococcus aureus [6] = assay: Antibacterial activity against Staphylococcus aureus ATCC 29213
Streptococcus pneumoniae [7] = assay: Antibacterial activity against Streptococcus pneumoniae ATCC 700671
Staphylococcus aureus [8] = assay: Antibacterial activity against macrolide resistant Staphylococcus aureus ATCC BAA-44
Staphylococcus aureus [9] = assay: Antibacterial activity against macrolide resistant Staphylococcus aureus ATCC BAA-39
Streptococcus pneumoniae [10] = assay: Antibacterial activity against macrolide resistant Streptococcus pneumoniae ATCC 700676
Staphylococcus aureus [11] = assay: Antibacterial activity against Staphylococcus aureus ATCC 6538p
[12] = system: Staphylococcus epidermidis; assay: Antibacterial activity against Staphylococcus epidermidis ATCC 12228
Streptococcus pneumoniae [13] = assay: Antibacterial activity against Streptococcus pneumoniae ATCC 6301
Streptococcus pneumoniae [14] = assay: Antibacterial activity against macrolide resistant Streptococcus pneumoniae ATCC 700906

SMILES	MIC (Streptococcus pneumoniae [1])	MIC (Enterococcus faecalis)	MIC (Streptococcus pneumoniae [2])	MIC (Staphylococcus aureus [3])	MIC (Staphylococcus aureus [4])	MIC (Streptococcus pneumoniae [5])	MIC (Staphylococcus aureus [6])	MIC (Streptococcus pneumoniae [7])	MIC (Staphylococcus aureus [8])	MIC (Staphylococcus aureus [9])	MIC (Streptococcus pneumoniae [10])	MIC (Staphylococcus aureus [11])	MIC [12]	MIC (Streptococcus pneumoniae [13])	MIC (Streptococcus pneumoniae [14])
CC[C@H]1OC(=O)C[C@@H](O)[C@H](C)[C@@H](O[C@@H]2O[C@H](C)[C@@H](O)[C@H](N(C)C)[C@H]2O)[C@@H](CC=O)C[C@@H](C)C(=N/OC/C=C\c2ccc3nccnc3c2)/C=C/C(C)=C/C1CO (stereo not given in full)	> 12.5 µg/mL	> 12.5 µg/mL	0.025 µg/mL (≈ 0.032 µM)	> 12.5 µg/mL	0.39 µg/mL (≈ 0.499 µM)	0.049 µg/mL (≈ 0.0627 µM)	0.39 µg/mL (≈ 0.499 µM)	0.049 µg/mL (≈ 0.0627 µM)	> 12.5 µg/mL	> 12.5 µg/mL	0.049 µg/mL (≈ 0.0627 µM)	0.2 µg/mL (≈ 0.256 µM)	0.2 µg/mL (≈ 0.256 µM)	0.025 µg/mL (≈ 0.032 µM)	> 12.5 µg/mL
CC[C@H]1OC(=O)C[C@@H](O)[C@H](C)[C@@H](O[C@@H]2O[C@H](C)[C@@H](O)[C@H](N(C)C)[C@@H]2O)[C@@H](CCN2CC(C)CC(C)C2)C[C@@H](C)C(=N/O)/C=C/C(C)=C/C1CO (stereo not given in full)	> 12.5 µg/mL	> 12.5 µg/mL	1.56 µg/mL (≈ 2.2 µM)	> 12.5 µg/mL	> 12.5 µg/mL	6.25 µg/mL (≈ 8.8 µM)	12.5 µg/mL (≈ 17.6 µM)	1.56 µg/mL (≈ 2.2 µM)	> 12.5 µg/mL	> 12.5 µg/mL	6.25 µg/mL (≈ 8.8 µM)	3.12 µg/mL (≈ 4.39 µM)	> 12.5 µg/mL	0.78 µg/mL (≈ 1.1 µM)	> 12.5 µg/mL
CC[C@H]1OC(=O)C[C@@H](O)[C@H](C)[C@@H](O[C@@H]2O[C@H](C)[C@@H](O)[C@H](N(C)C)[C@H]2O)[C@@H](CC=O)C[C@@H](C)C(=N/OCCCCOc2ccc3ncccc3c2)/C=C/C(C)=C/C1CO (stereo not given in full)	0.39 µg/mL (≈ 0.48 µM)	> 12.5 µg/mL	0.01 µg/mL (≈ 0.0123 µM)	> 12.5 µg/mL	0.78 µg/mL (≈ 0.961 µM)	0.025 µg/mL (≈ 0.0308 µM)	0.78 µg/mL (≈ 0.961 µM)	0.025 µg/mL (≈ 0.0308 µM)	> 12.5 µg/mL	> 12.5 µg/mL	0.025 µg/mL (≈ 0.0308 µM)	0.2 µg/mL (≈ 0.246 µM)	0.2 µg/mL (≈ 0.246 µM)	0.025 µg/mL (≈ 0.0308 µM)	> 12.5 µg/mL
CC[C@H]1OC(=O)C[C@@H](O)[C@H](C)[C@@H](O[C@@H]2O[C@H](C)[C@@H](O)[C@H](N(C)C)[C@H]2O)[C@@H](CC=O)C[C@@H](C)C(=N/OC/C=C\c2cnc3ccccc3c2)/C=C/C(C)=C/C1CO (stereo not given in full)	> 12.5 µg/mL	> 12.5 µg/mL	0.025 µg/mL (≈ 0.0321 µM)	> 12.5 µg/mL	0.78 µg/mL (≈ 1 µM)	0.049 µg/mL (≈ 0.0628 µM)	0.78 µg/mL (≈ 1 µM)	0.025 µg/mL (≈ 0.0321 µM)	> 12.5 µg/mL	> 12.5 µg/mL	0.049 µg/mL (≈ 0.0628 µM)	0.2 µg/mL (≈ 0.256 µM)	0.39 µg/mL (≈ 0.5 µM)	0.025 µg/mL (≈ 0.0321 µM)	> 12.5 µg/mL
CC[C@H]1OC(=O)C[C@@H](O)[C@H](C)[C@@H](O[C@@H]2O[C@H](C)[C@@H](O)[C@H](N(C)C)[C@H]2O)[C@@H](CC=O)C[C@@H](C)C(=N\OCC#Cc2cnc3ccccc3c2)/C=C/C(C)=C/C1CO (stereo not given in full)	> 12.5 µg/mL	> 12.5 µg/mL	0.049 µg/mL (≈ 0.063 µM)	> 12.5 µg/mL	0.78 µg/mL (≈ 1 µM)	0.049 µg/mL (≈ 0.063 µM)	0.39 µg/mL (≈ 0.501 µM)	0.049 µg/mL (≈ 0.063 µM)	> 12.5 µg/mL	> 12.5 µg/mL	0.049 µg/mL (≈ 0.063 µM)	0.098 µg/mL (≈ 0.126 µM)	0.2 µg/mL (≈ 0.257 µM)	0.025 µg/mL (≈ 0.0321 µM)	> 12.5 µg/mL
CC[C@H]1OC(=O)C[C@@H](O)[C@H](C)[C@@H](O[C@@H]2O[C@H](C)[C@@H](O)[C@H](N(C)C)[C@@H]2O)[C@@H](CCN2CC(C)CC(C)C2)C[C@@H](C)C(=N/OCCCCc2ccc3ncccc3c2)/C=C/C(C)=C/C1CO (stereo not given in full)	> 12.5 µg/mL	> 12.5 µg/mL	6.25 µg/mL (≈ 7 µM)	> 12.5 µg/mL	> 12.5 µg/mL	6.25 µg/mL (≈ 7 µM)	12.5 µg/mL (≈ 14 µM)	3.12 µg/mL (≈ 3.49 µM)	> 12.5 µg/mL	> 12.5 µg/mL	6.25 µg/mL (≈ 7 µM)	6.25 µg/mL (≈ 7 µM)	> 12.5 µg/mL	1.56 µg/mL (≈ 1.75 µM)	> 12.5 µg/mL
CC[C@H]1OC(=O)C[C@@H](O)[C@H](C)[C@@H](O[C@@H]2O[C@H](C)[C@@H](O)[C@H](N(C)C)[C@H]2O)[C@@H](CC=O)C[C@@H](C)C(=N\OCCOc2ccccc2)/C=C/C(C)=C/C1CO (stereo not given in full)	1.56 µg/mL (≈ 2.13 µM)	> 12.5 µg/mL	0.2 µg/mL (≈ 0.273 µM)	> 12.5 µg/mL	3.12 µg/mL (≈ 4.26 µM)	0.78 µg/mL (≈ 1.06 µM)	3.12 µg/mL (≈ 4.26 µM)	0.39 µg/mL (≈ 0.532 µM)	> 12.5 µg/mL	> 12.5 µg/mL	0.2 µg/mL (≈ 0.273 µM)	1.56 µg/mL (≈ 2.13 µM)	1.56 µg/mL (≈ 2.13 µM)	0.098 µg/mL (≈ 0.134 µM)	> 12.5 µg/mL
CC[C@H]1OC(=O)C[C@@H](O)[C@H](C)[C@@H](O[C@@H]2O[C@H](C)[C@@H](O)[C@H](N(C)C)[C@@H]2O)[C@@H](CCN2CC(C)CC(C)C2)C[C@@H](C)C(=N\OCCCCc2ccc3ccccc3c2)/C=C/C(C)=C/C1CO (stereo not given in full)	> 12.5 µg/mL	> 12.5 µg/mL	12.5 µg/mL (≈ 14 µM)	> 12.5 µg/mL	> 12.5 µg/mL	12.5 µg/mL (≈ 14 µM)	> 12.5 µg/mL	12.5 µg/mL (≈ 14 µM)	> 12.5 µg/mL	> 12.5 µg/mL	> 12.5 µg/mL	> 12.5 µg/mL	> 12.5 µg/mL	6.25 µg/mL (≈ 7 µM)	> 12.5 µg/mL
